Reference: ChEMBL document CHEMBL3259563, “The discovery of potent and selective non-steroidal glucocorticoid receptor modulators, suitable for inhalation” (Bioorg Med Chem Lett, 2014)

Experiments:
[1] = Lipophilicity, log D of the compound at pH 7.4; format: physicochemical; details: buffer
[2] = biological target: T1, Mineralocorticoid receptor (Homo sapiens, UniProt P08235); experiment: Binding affinity to mineralocorticoid receptor (unknown origin)
T1 sequence (P08235 whole entry): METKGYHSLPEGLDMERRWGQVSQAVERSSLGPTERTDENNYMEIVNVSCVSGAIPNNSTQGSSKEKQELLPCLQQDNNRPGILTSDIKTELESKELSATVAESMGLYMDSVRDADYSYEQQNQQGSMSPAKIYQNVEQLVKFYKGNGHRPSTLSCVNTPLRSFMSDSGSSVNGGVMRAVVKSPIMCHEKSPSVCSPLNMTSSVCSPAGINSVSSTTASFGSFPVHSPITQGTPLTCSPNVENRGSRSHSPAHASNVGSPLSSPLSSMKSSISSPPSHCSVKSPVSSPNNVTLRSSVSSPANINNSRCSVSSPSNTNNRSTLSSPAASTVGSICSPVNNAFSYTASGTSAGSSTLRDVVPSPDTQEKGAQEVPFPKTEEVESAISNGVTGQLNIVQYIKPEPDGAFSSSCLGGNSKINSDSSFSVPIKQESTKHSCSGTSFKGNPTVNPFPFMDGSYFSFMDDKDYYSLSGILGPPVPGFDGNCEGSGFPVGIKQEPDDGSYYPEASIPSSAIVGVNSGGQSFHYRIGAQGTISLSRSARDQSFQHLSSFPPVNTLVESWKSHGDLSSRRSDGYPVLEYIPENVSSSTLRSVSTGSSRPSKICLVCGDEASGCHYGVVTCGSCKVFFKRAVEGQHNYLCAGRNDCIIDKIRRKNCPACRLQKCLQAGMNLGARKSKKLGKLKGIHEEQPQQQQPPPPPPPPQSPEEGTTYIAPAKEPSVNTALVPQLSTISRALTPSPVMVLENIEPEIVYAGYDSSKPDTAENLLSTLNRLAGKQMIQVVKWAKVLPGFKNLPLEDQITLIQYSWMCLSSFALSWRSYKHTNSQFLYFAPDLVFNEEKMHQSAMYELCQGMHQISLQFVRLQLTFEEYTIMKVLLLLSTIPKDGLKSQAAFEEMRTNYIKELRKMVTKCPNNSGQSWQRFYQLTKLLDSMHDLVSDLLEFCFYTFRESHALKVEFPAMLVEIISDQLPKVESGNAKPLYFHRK

Estrogen receptor = biological target: T2, Estrogen receptor (Homo sapiens, UniProt P03372); experiment: Binding affinity to ER-alpha (unknown origin)
T2 sequence (P03372 whole entry): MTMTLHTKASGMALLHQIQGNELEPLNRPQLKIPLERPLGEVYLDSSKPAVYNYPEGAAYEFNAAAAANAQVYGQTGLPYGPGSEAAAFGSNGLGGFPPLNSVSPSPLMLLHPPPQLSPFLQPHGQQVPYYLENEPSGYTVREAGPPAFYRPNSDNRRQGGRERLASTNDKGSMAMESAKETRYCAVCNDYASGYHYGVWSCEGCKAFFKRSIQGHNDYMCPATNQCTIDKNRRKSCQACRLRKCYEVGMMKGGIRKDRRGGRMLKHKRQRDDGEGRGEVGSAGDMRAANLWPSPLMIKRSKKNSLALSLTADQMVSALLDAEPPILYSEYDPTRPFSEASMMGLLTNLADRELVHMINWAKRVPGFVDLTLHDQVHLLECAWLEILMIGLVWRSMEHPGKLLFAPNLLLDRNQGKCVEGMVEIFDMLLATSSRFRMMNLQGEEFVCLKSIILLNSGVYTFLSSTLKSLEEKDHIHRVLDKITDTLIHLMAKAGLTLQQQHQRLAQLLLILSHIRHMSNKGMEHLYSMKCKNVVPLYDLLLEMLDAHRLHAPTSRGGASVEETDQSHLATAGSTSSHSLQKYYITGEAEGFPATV

[3] = Intrinsic clearance in rat microsomes; format: ADME, Microsome
Hepatocyte = experiment: Intrinsic clearance in rat hepatocytes; format: ADME, cell-based
Cytochrome P450 1A2 = biological target: T3, Cytochrome P450 1A2 (Homo sapiens, UniProt P05177); experiment: Inhibition of CYP1A2 (unknown origin); format: ADME
T3 sequence (P05177 whole entry): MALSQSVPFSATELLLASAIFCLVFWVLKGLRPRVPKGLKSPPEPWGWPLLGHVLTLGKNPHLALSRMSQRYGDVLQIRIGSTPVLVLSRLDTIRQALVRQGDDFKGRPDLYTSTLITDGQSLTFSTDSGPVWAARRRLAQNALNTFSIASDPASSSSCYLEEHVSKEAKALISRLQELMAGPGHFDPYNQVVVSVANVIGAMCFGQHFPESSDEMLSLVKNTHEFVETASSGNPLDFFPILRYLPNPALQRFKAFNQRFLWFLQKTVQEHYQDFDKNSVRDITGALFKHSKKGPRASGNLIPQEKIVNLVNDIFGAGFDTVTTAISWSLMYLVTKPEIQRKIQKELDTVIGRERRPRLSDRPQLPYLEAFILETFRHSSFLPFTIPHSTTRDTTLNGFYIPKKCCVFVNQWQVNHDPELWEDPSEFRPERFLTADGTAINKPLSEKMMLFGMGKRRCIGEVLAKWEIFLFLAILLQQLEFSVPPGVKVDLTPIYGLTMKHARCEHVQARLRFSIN

Cytochrome P450 2C9 = Cytochrome P450 2C9 (Homo sapiens, UniProt P11712); experiment: Inhibition of CYP2C9 (unknown origin); format: ADME
Sequence of Cytochrome P450 2C9 (P11712 whole entry): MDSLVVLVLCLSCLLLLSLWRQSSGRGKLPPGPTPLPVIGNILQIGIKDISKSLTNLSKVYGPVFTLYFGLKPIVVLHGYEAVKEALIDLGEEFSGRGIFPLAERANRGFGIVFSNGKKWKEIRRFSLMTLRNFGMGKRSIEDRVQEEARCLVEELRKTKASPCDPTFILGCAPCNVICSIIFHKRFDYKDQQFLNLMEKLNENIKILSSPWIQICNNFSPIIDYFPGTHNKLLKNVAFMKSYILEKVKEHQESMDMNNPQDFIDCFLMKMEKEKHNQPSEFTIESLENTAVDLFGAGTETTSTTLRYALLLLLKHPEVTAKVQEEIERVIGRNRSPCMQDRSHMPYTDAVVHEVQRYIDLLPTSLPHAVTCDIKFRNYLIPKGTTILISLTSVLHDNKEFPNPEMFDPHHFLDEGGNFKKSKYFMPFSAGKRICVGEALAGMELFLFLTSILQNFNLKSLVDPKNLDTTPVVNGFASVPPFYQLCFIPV

[4] = Half life in iv dosed rat; format: ADME, organism-based; details: in vivo
[5] = Volume of distribution at steady state in iv dosed rat; format: ADME, organism-based; details: in vivo, read-out: Vdss
Glucocorticoid receptor = biological target: T4, Glucocorticoid receptor (Homo sapiens, UniProt P04150)
T4 sequence (P04150 whole entry): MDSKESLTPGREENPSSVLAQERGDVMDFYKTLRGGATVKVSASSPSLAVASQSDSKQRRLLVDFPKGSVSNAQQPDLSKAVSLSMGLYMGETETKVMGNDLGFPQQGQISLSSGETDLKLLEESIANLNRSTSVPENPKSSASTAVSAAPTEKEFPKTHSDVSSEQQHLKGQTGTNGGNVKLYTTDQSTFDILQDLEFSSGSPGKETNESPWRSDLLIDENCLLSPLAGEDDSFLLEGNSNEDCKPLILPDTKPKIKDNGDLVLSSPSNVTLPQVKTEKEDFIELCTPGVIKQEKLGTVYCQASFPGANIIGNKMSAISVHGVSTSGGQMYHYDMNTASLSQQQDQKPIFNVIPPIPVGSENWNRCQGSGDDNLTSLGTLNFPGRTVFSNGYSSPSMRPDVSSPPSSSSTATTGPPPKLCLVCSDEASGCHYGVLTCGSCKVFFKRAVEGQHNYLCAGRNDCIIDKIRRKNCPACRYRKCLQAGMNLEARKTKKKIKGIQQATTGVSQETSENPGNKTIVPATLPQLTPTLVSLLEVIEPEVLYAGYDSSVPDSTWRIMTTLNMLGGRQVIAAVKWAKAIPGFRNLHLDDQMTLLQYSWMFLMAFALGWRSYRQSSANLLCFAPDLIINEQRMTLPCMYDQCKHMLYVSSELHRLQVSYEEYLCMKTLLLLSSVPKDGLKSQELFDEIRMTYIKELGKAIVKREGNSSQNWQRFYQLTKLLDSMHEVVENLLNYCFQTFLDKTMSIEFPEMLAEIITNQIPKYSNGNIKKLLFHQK
Description: Agonist activity at glucocorticoid receptor in human PBMC assessed as inhibition of LPS-stimulated TNF-alpha release

Cc1nn(C2CCCC2)c(C)c1S(=O)(=O)N[C@@H](C)CNc1cccc2c1cnn2-c1ccc(F)nc1
logD [1]: 3.7 | IC50 [2]: > 5 µM | IC50 (Estrogen receptor): > 5 µM | microsomal CLint [3]: > 200 µL/min/mg | CLH (Hepatocyte): 33 µL/min | IC50 (Cytochrome P450 1A2): > 20 µM | IC50 (Cytochrome P450 2C9): 17 µM | half-life [4]: 384 min | Vd [5]: 15 L/kg | IC50 (Glucocorticoid receptor): 14 nM
